Reference: patent US20170168073A1, “CHALCONE-UREA DERIVATIVES AS INSULIN SENSORS” (Agency for Science, Technology and Research, priority 2013, published 2017)

Legend:
serum albumin = experiment: Selectivity of fluorescence response to insulin over serum albumins (BSA, HSA, HSA lipid free); type: binding; conditions: over serum albumin (BSA, HSA, HSA lipid free; FIG. 1c)
Source text: FIG. 1c is a graph showing the selectivity of Insulin Green to insulin over bovine serum albumin (BSA), human serum albumin (HSA) and HSA lipid free.

insulin = insulin (Homo sapiens, UniProt P01308); experiment: Fluorescence response of CLU compounds to insulin; type: binding
Sequence of insulin (P01308 25-54 limits assumed, species assumed): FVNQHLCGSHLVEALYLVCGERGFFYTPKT
Sequence of insulin (P01308 90-110 limits assumed, species assumed): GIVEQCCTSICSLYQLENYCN
Procedure: All the reagents and solvents were purchased from Aldrich, Alfa and Acros organics and used without further purification. All reactions were performed in oven-dried glassware under a positive pressure of nitrogen. Analytical TLC was carried out on Merck 60 F254 silica gel plate (0.25 mm layer thickness) and visualization was done with UV light. Column chromatography was performed on Merck 60 silica gel (230-400 mesh). NMR spectra were recorded on a Bruker Avance 300 NMR spectrometer. Chemical shifts are reported as 6 in units of parts per million (ppm) and coupling constants are reported as a J value in Hertz (Hz). Mass of all the compounds was determined by LC-MS of Agilent Technologies with an electrospray ionization source. Spectroscopic measurements were performed on a fluorometer and UV/VIS instrument, Synergy 4 of bioteck company and Gemini XS fluorescence plate reader. The slit width was 1 nm for both excitation and emission.
The present invention includes the synthesis of fluorescent chalcone-urea library (CLU), which was prepared on solid support. The CLU library was screened against four different concentrations of insulin (0.2, 0.1, 0.05 and 0.025 mg/mL) in HEPES buffer (20 mM, pH=7.4). Based on fluorescent intensity, 5 hits with more than 50-fold increase were selected (Table 2). CLU-381 was further derivatized due to the synthetic convenience to render 8 derivatives (Table 3).

For `COc1ccc(CNC(=O)Nc2ccc(C(=O)/C=C/c3ccc(N(CCO)CCO)cc3)cc2)cc1` [Insulin Green], which “selectivity for insulin over other proteins” value (serum albumin) is on record?
The value was “good selectivity over other proteins”.

And the “fluorescent increase to insulin” value (insulin; 200 μg/mL insulin (FIG. 1a))?
The value was 94 fold.

What about the “responsiveness to insulin among the 8 CLU-381 derivatives” value (insulin; 8 derivatives tested against insulin) of the same compound?
Its value is “most responsive compound”.
